melting point [°C] | Compound
192 | N#CCCCC(=O)N[C@H]1CC[C@H](CCN2CCN(c3ccc(F)c(Cl)c3F)CC2)CC1 [Example 552, N-(4-{2-[4-(3-Chloro-2,4-difluorophenyl)piperazin-1-yl]ethyl}cyclohexyl)-4-cyanobutanamide]
181 | Cc1ccccc1N1CCN(CC[C@H]2CC[C@H](NC(=O)C3=CCCC3)CC2)CC1 [Example 556, Cyclopent-1-enecarboxylic acid {4-[2-(4-o-tolylpiperazin-1-yl)ethyl]cyclohexyl} amide]
101 | CCOCC(=O)N[C@H]1CC[C@H](CCN2CCN(c3ccccc3C)CC2)CC1 [Example 557]
177 | N#CCCCC(=O)N[C@H]1CC[C@H](CCN2CCc3cc(C#N)ccc3C2)CC1 [Example 558, 4-Cyano-N-{4-[2-(6-cyano-3,4-dihydro-1H-isoquinolin-2-yl)ethyl]cyclohexyl}butanamide]
206 | N#CCC(=O)N[C@H]1CC[C@H](CCN2CCc3cc(C#N)ccc3C2)CC1 [Example 559, 2-Cyano-N-{4-[2-(6-cyano-3,4-dihydro-1H-isoquinolin-2-yl)ethyl]cyclohexyl}acetamide]
130 | CCc1cccc(N2CCN(CC[C@H]3CC[C@H](NC(=O)CCCOC)CC3)CC2)c1 [Example 560, N-(4-{2-[4-(3-Ethylphenyl)piperazin-1-yl]ethyl}cyclohexyl)-4-methoxybutanamide]
135 | CCc1cccc(N2CCN(CC[C@H]3CC[C@H](NC(=O)C4=CCCCO4)CC3)CC2)c1 [Example 561, 5,6-Dihydro-4H-pyran-2-carboxylic acid (4-{2-[4-(3-ethylphenyl)piperazin-1-yl]ethyl}cyclohexyl) amide]
142 | O=C(N[C@H]1CC[C@H](CCN2CCN(c3cccc(C(F)(F)F)c3)CC2)CC1)C1=CCCCO1 [Example 562, 5,6-Dihydro-4H-pyran-2-carboxylic acid (4-{2-[4-(3-trifluoromethylphenyl)piperazin-1-yl]ethyl}cyclohexyl) amide]
100 | CCOCC(=O)N[C@H]1CC[C@H](CCN2CCN(c3cccc(CC)c3)CC2)CC1 [Example 563, 2-Ethoxy-N-(4-{2-[4-(3-ethylphenyl)piperazin-1-yl]ethyl}cyclohexyl)acetamide]
175 | O=C(N[C@H]1CC[C@H](CCN2CCN(c3cccc(C(F)(F)F)c3)CC2)CC1)C1=COCC1 [Example 564, 4,5-Dihydrofuran-3-carboxylic acid (4-{2-[4-(3-trifluoromethylphenyl)piperazin-1-yl]ethyl}cyclohexyl) amide]
160 | O=C(N[C@H]1CC[C@H](CCN2CCN(c3ccc(F)cc3F)CC2)CC1)C1=CCCCO1 [Example 565, 5,6-Dihydro-4H-pyran-2-carboxylic acid (4-{2-[4-(2,4-difluorophenyl)piperazin-1-yl]ethyl}cyclohexyl) amide]
157 | CCC(O)c1cccc(N2CCN(CC[C@H]3CC[C@H](NC(=O)CC#N)CC3)CC2)c1 (stereo partly drawn) [Example 566, 2-cyano-N-[4-(2-{4-[3-(1-hydroxypropyl)phenyl]piperazin-1-yl}ethyl)cyclohexyl]acetamide]
194 | COCCCC(=O)N[C@H]1CC[C@H](CCN2CCN(c3cc(F)c(F)c(F)c3)CC2)CC1 [Example 568, 4-Methoxy-N-(4-{2-[4-(3,4,5-trifluorophenyl)piperazin-1-yl]ethyl}cyclohexyl)butanamide]
205 | COc1ccc(N2CCN(CC[C@H]3CC[C@H](NC(=O)C4=CCCC4)CC3)CC2)cc1 [Example 571, Cyclopent-1-enecarboxylic acid (4-{2-[4-(4-methoxyphenyl)-piperazin-1-yl]ethyl}cyclohexyl) amide]
132 | CCOCC(=O)N[C@H]1CC[C@H](CCN2CCN(c3ccc(OC)cc3)CC2)CC1 [Example 572, 2-Ethoxy-N-(4-{2-[4-(4-methoxyphenyl)piperazin-1-yl]ethyl}cyclohexyl)acetamide]
227 | COc1ccc(N2CCN(CC[C@H]3CC[C@H](NC(=O)CC#N)CC3)CC2)cc1 [Example 573, 2-Cyano-N-(4-{2-[4-(4-methoxyphenyl)piperazin-1-yl]ethyl}cyclohexyl)acetamide]
231 | N#CCC(=O)N[C@H]1CC[C@H](CCN2CCN(c3cc(F)c(C(F)(F)F)c(F)c3)CC2)CC1 [Example 574, 2-Cyano-N-(4-{2-[4-(3,5-difluoro-4-trifluoromethylphenyl)piperazin-1-yl]ethyl}cyclohexyl) acetamide]
119 | CC(C)C(O)c1cccc(N2CCN(CC[C@H]3CC[C@H](NC(=O)CC#N)CC3)CC2)c1 (stereo partly drawn) [Example 575, 2-cyano-N-[4-(2-{4-[3-(1-hydroxy-2-methylpropyl)phenyl]piperazin-1-yl}ethyl)cyclohexyl]acetamide]
75 | CC(=O)CN1CCC(CCN2CCN(c3ccc4c(c3)CCCC4)CC2)CC1 [Example 576]
100 | CCOCC(=O)N[C@H]1CC[C@H](CCN2CCN(c3cc(C)cc(Cl)c3)CC2)CC1 [Example 577, N-(4-{2-[4-(3-Chloro-5-methylphenyl)piperazin-1-yl]ethyl}cyclohexyl)-2-ethoxyacetamide]

melting point [°C] | Compound
167 | COCCCC(=O)N[C@H]1CC[C@H](CCN2CCN(c3cc(C)cc(Cl)c3)CC2)CC1 [Example 578, N-(4-{2-[4-(3-Chloro-5-methylphenyl)piperazin-1-yl]ethyl}cyclohexyl)-4-methoxybutanamide]
132 | CCOCC(=O)N[C@H]1CC[C@H](CCN2CCN(c3cc(C)c(F)cc3Cl)CC2)CC1 [Example 579, N-(4-{2-[4-(2-Chloro-4-fluoro-5-methylphenyl)piperazin-1-yl]ethyl}cyclohexyl)-2-ethoxyacetamide]
171 | COCCCC(=O)N[C@H]1CC[C@H](CCN2CCN(c3cc(C)c(F)cc3Cl)CC2)CC1 [Example 580, N-(4-{2-[4-(2-Chloro-4-fluoro-5-methylphenyl)piperazin-1-yl]ethyl}cyclohexyl)-4-methoxybutanamide]
107 | CC(=O)CN1CCC(CCN2CCN(c3cc(F)cc(Cl)c3)CC2)CC1 [Example 581, 1-(4-{2-[4-(3-Chloro-5-fluorophenyl)piperazin-1-yl]ethyl}piperidin-1-yl)propan-2-one]
200 | COc1ccc(N2CCN(CC[C@H]3CC[C@H](NC(=O)CCCC#N)CC3)CC2)cc1 [Example 582, 4-Cyano-N-(4-{2-[4-(4-methoxyphenyl)piperazin-1-yl]ethyl}cyclohexyl)butanamide]
113 | CC(=O)CN1CCC(CCN2CCN(c3ccc4c(c3)OCO4)CC2)CC1 [Example 584, 1-{4-[2-(4-Benzo[1,3]dioxol-5-ylpiperazin-1-yl)ethyl]piperidin-1-yl}propan-2-one]
152 | N#CCC(=O)N[C@H]1CC[C@@H](CCN2CCN(c3cc(C(F)(F)F)ccc3F)CC2)CC1 [Example 586, 2-Cyano-N-(4-{2-[4-(2-fluoro-5-trifluoromethylphenyl)piperazin-1-yl]ethyl}cyclohexyl)acetamide]
104 | CC(=O)CN1CCC(CCN2CCN(c3ccc(C(F)(F)F)cc3)CC2)CC1 [Example 587, 1-(4-{2-[4-(4-Trifluoromethylphenyl)piperazin-1-yl]ethyl}pipericin-1-yl)propan-2-one]
92 | CC(=O)CN1CCC(CCN2CCN(c3ccc(F)c(Cl)c3)CC2)CC1 [Example 592, 1-(4-{2-[4-(3-Chloro-4-fluorophenyl)piperazin-1-yl]ethyl}piperidin-1-yl)propan-2-one]
176 | N#CCC(=O)N[C@H]1CC[C@H](CCN2CCN(c3ccc(F)c(Cl)c3)CC2)CC1 [Example 594, N-(4-{2-[4-(3-Chloro-4-fluorophenyl)piperazin-1-yl]ethyl}cyclohexyl)-2-cyanoacetamide]
142 | N#CCCCC(=O)N[C@H]1CC[C@H](CCN2CCN(c3ccc(F)c(Cl)c3)CC2)CC1 [Example 598, N-(4-{2-[4-(3-Chloro-4-fluorophenyl)piperazin-1-yl]ethyl}cyclohexyl)-4-cyanobutanamide]
225 | N#CCC(=O)N[C@H]1CC[C@H](CCN2CCN(c3cc(C#N)ccc3Cl)CC2)CC1 [Example 599, N-(4-{2-[4-(2-Chloro-5-cyanophenyl)piperazin-1-yl]ethyl}cyclohexyl)-2-cyanoacetamide]
206 | N#CCCCC(=O)N[C@H]1CC[C@H](CCN2CCN(c3cc(C#N)ccc3Cl)CC2)CC1 [Example 601, N-(4-{2-[4-(2-Chloro-5-cyanophenyl)piperazin-1-yl]ethyl}cyclohexyl)-4-cyanobutanamide]
257 | NC(=O)CCC(=O)N[C@H]1CC[C@H](CCN2CCN(c3ccc(F)c(Cl)c3F)CC2)CC1 [Example 602, N-(4-{2-[4-(3-Chloro-2,4-difluorophenyl)piperazin-1-yl]ethyl}cyclohexyl)succinamide]
85 | CC(=O)CN1CCC(CCN2CCN(c3cccc(C(C)=O)c3)CC2)CC1 [Example 603, 1-(4-{2-[4-(3-Acetylphenyl)-piperazin-1-yl]ethyl}piperidin-1-yl)propan-2-one]
68 | CCC(=O)c1cccc(N2CCN(CCC3CCN(CC(C)=O)CC3)CC2)c1 [Example 604, 1-[3-(4-{2-[1-(2-Oxopropyl)piperidin-4-yl]ethyl}piperazin-1-yl)phenyl]propan-1-one]
97 | CC(=O)CN1CCC(CCN2CCN(c3cccc(C(C)O)c3)CC2)CC1 (stereo not drawn) [Example 606, 1-[4-(2-{4-[3-(1-Hydroxyethyl)phenyl]piperazin-1-yl}ethyl)piperidin-1-yl]propan-2-one]
83 | CCC(O)c1cccc(N2CCN(CCC3CCN(CC(C)=O)CC3)CC2)c1 (stereo not drawn) [Example 607, 1-[4-(2-{4-[3-(1-Hydroxypropyl)phenyl]piperazin-1-yl}ethyl)piperidin-1-yl]propan-2-one]
78 | CC(=O)CN1CCC(CCN2CCN(c3cccc(C(O)C(C)C)c3)CC2)CC1 (stereo not drawn) [Example 608, 1-[4-(2-{4-[3-(1-Hydroxy-2-methylpropyl)phenyl]piperazin-1-yl}ethyl)piperidin-1-yl]propan-2-one]

Reference: US8802678B2, “Carbonylated (aza) cyclohexanes as dopamine D3 receptor ligands” (Bioprojet, priority 2006, dated 2014)
